ChEMBL document CHEMBL1201862, “PubChem BioAssay data set” (2004)
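Grown in 96-well plates, cells were treated for 48 hours with each compound at five concentrations. Insufficient inhibition: endpoint recorded as highest concentration tested. GI50 marks 50% less growth.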 Calls of active or inactive are those of the source. Rule as the data show it: active = GI50 up to about 1.1 µM and inactive = higher.

What was measured:
Assay in all cases: NCI anticancer screen, dose series, 48 h
OVCAR-3 = test system: OVCAR-3
SW-620 = test system: SW-620
PC-3 = test system: PC-3
HCT-116 = test system: HCT-116
HT-29 = test system: HT-29
HOP-92 = test system: HOP-92
ACHN = test system: ACHN
SN12C = test system: SN12C
SNB-19 = test system: SNB-19
UACC-257 = test system: UACC-257
IGROV-1 = test system: IGROV-1
HL-60 = test system: HL-60
NCI-H460 = test system: NCI-H460
MCF7 = test system: MCF7
T47D = test system: T47D
SK-MEL-28 = test system: SK-MEL-28
A498 = test system: A498
786-0 = test system: 786-0
UACC-62 = test system: UACC-62
CAKI-1 = test system: CAKI-1
LOX IMVI = test system: LOX IMVI
COLO 205 = test system: COLO 205
A549 = test system: A549
SF-295 = test system: SF-295
SNB-75 = test system: SNB-75
OVCAR-5 = test system: OVCAR-5
NCI/ADR-RES = test system: NCI/ADR-RES
OVCAR-8 = test system: OVCAR-8
RPMI-8226 = test system: RPMI-8226
SK-MEL-5 = test system: SK-MEL-5
BT-549 = test system: BT-549
MOLT-4 = test system: MOLT-4
DU-145 = test system: DU-145
SF-268 = test system: SF-268
OVCAR-4 = test system: OVCAR-4
CCRF-CEM = test system: CCRF-CEM
UO-31 = test system: UO-31
MDA-N = test system: MDA-N
SK-OV-3 = test system: SK-OV-3
SK-MEL-2 = test system: SK-MEL-2
NCI-H23 = test system: NCI-H23
HCT-15 = test system: HCT-15
SR = test system: SR
EKVX = test system: EKVX
NCI-H226 = test system: NCI-H226
SF-539 = test system: SF-539
M14 = test system: M14
HOP-62 = test system: HOP-62
KM12 = test system: KM12
K562 = test system: K562
RXF 393 = test system: RXF 393
MDA-MB-231 = test system: MDA-MB-231
TK-10 = test system: TK-10
U-251 = test system: U-251
MDA-MB-435 = test system: MDA-MB-435
NCI-H522 = test system: NCI-H522
Malme-3M = test system: Malme-3M
HCC 2998 = test system: HCC 2998
Hs-578T = test system: Hs-578T

Measured: GI50

NN/C(=N\S(=O)(=O)c1cccc2nsnc12)Nc1ccc(Cl)cc1
inactive: OVCAR-3 > 100 µM | SW-620 > 100 µM | PC-3 > 100 µM | HCT-116 > 100 µM | HT-29 > 100 µM | HOP-92 > 100 µM | ACHN > 100 µM | SN12C > 100 µM | SNB-19 > 100 µM | UACC-257 > 100 µM | IGROV-1 > 100 µM | HL-60 9.98 µM | NCI-H460 > 100 µM | MCF7 > 100 µM | T47D 48.6 µM | SK-MEL-28 > 100 µM | A498 > 100 µM | 786-0 > 100 µM | UACC-62 > 100 µM | CAKI-1 > 100 µM | LOX IMVI > 100 µM | COLO 205 > 100 µM | A549 > 100 µM | SF-295 > 100 µM | SNB-75 65.9 µM | OVCAR-5 > 100 µM | NCI/ADR-RES > 100 µM | OVCAR-8 > 100 µM | RPMI-8226 > 100 µM | SK-MEL-5 > 100 µM | BT-549 > 100 µM | MOLT-4 61 µM | DU-145 > 100 µM | SF-268 26.2 µM | OVCAR-4 > 100 µM | CCRF-CEM > 100 µM | UO-31 > 100 µM | MDA-N > 100 µM | SK-OV-3 > 100 µM | SK-MEL-2 > 100 µM | NCI-H23 > 100 µM | SR > 100 µM | EKVX > 100 µM | NCI-H226 > 100 µM | SF-539 > 100 µM | M14 > 100 µM | HOP-62 > 100 µM | KM12 > 100 µM | K562 > 100 µM | RXF 393 > 100 µM | MDA-MB-231 > 100 µM | TK-10 > 100 µM | U-251 > 100 µM
> 100 µM: HCT-15

Cc1cc(S(=O)(=O)Nc2nc3cscc3c(=O)n2N)c(S)cc1Cl
inactive: OVCAR-3 45 µM | SW-620 54.7 µM | PC-3 48.8 µM | HCT-116 36.7 µM | MDA-MB-435 56 µM | HT-29 39.6 µM | ACHN 56.2 µM | SN12C 56.4 µM | SNB-19 35.9 µM | UACC-257 > 100 µM | NCI-H522 32.8 µM | IGROV-1 50.7 µM | HL-60 > 100 µM | NCI-H460 28 µM | MCF7 61.5 µM | SK-MEL-28 73.3 µM | 786-0 54.6 µM | UACC-62 31.9 µM | CAKI-1 > 100 µM | LOX IMVI 36.5 µM | COLO 205 > 100 µM | A549 28.2 µM | SF-295 37.9 µM | SNB-75 15 µM | OVCAR-5 26.5 µM | NCI/ADR-RES 26.3 µM | OVCAR-8 46.2 µM | RPMI-8226 96.6 µM | SK-MEL-5 41 µM | BT-549 55.1 µM | MOLT-4 57.3 µM | DU-145 40.3 µM | SF-268 17.7 µM | OVCAR-4 39.3 µM | CCRF-CEM 62.8 µM | MDA-N 51.4 µM | Malme-3M 39.4 µM | HCC 2998 47.5 µM | SK-OV-3 > 100 µM | SK-MEL-2 33.4 µM | NCI-H23 55.2 µM | EKVX 70.1 µM | NCI-H226 8.15 µM | SF-539 34.7 µM | M14 31.9 µM | HOP-62 49.3 µM | KM12 39.5 µM | K562 60.5 µM | MDA-MB-231 73.8 µM | TK-10 > 100 µM | U-251 37.3 µM
35.2 µM: HCT-15

Cc1cc(C)c(N[S+]([O-])c2ccc(Cl)cc2)c(C)c1 (stereo not drawn)
> 100 µM: HCT-15
inactive: OVCAR-3 > 100 µM | SW-620 > 100 µM | PC-3 > 100 µM | HCT-116 > 100 µM | MDA-MB-435 51.5 µM | HT-29 > 100 µM | HOP-92 68.7 µM | ACHN > 100 µM | SN12C > 100 µM | SNB-19 > 100 µM | UACC-257 > 100 µM | HL-60 > 100 µM | NCI-H460 > 100 µM | MCF7 > 100 µM | T47D > 100 µM | SK-MEL-28 > 100 µM | A498 > 100 µM | 786-0 > 100 µM | COLO 205 > 100 µM | A549 > 100 µM | SF-295 > 100 µM | OVCAR-5 > 100 µM | NCI/ADR-RES > 100 µM | OVCAR-8 > 100 µM | RPMI-8226 > 100 µM | BT-549 > 100 µM | MOLT-4 > 100 µM | DU-145 > 100 µM | SF-268 > 100 µM | CCRF-CEM > 100 µM | UO-31 > 100 µM | MDA-N 71.1 µM | Malme-3M > 100 µM | HCC 2998 83.4 µM | NCI-H23 > 100 µM | SR > 100 µM | EKVX > 100 µM | NCI-H226 > 100 µM | SF-539 > 100 µM | M14 > 100 µM | HOP-62 > 100 µM | KM12 > 100 µM | K562 > 100 µM | RXF 393 > 100 µM | TK-10 > 100 µM | U-251 > 100 µM

CC(=O)n1c2ccc(Br)cc2c2nc3ccccc3nc21
> 100 µM: HCT-15
inactive: OVCAR-3 > 100 µM | SW-620 > 100 µM | PC-3 > 100 µM | HCT-116 > 100 µM | MDA-MB-435 > 100 µM | HT-29 > 100 µM | HOP-92 > 100 µM | ACHN > 100 µM | SN12C > 100 µM | SNB-19 > 100 µM | UACC-257 > 100 µM | NCI-H522 > 100 µM | IGROV-1 > 100 µM | HL-60 > 100 µM | NCI-H460 > 100 µM | MCF7 56.2 µM | SK-MEL-28 > 100 µM | 786-0 > 100 µM | UACC-62 > 100 µM | CAKI-1 > 100 µM | LOX IMVI > 100 µM | COLO 205 > 100 µM | SF-295 > 100 µM | SNB-75 > 100 µM | OVCAR-5 > 100 µM | NCI/ADR-RES > 100 µM | OVCAR-8 > 100 µM | RPMI-8226 > 100 µM | SK-MEL-5 > 100 µM | BT-549 > 100 µM | MOLT-4 > 100 µM | DU-145 > 100 µM | SF-268 > 100 µM | OVCAR-4 75.3 µM | CCRF-CEM > 100 µM | UO-31 > 100 µM | MDA-N > 100 µM | Malme-3M > 100 µM | HCC 2998 > 100 µM | SK-MEL-2 > 100 µM | NCI-H23 > 100 µM | SR > 100 µM | EKVX > 100 µM | NCI-H226 > 100 µM | SF-539 > 100 µM | M14 > 100 µM | HOP-62 95.1 µM | KM12 > 100 µM | K562 > 100 µM | RXF 393 > 100 µM | MDA-MB-231 > 100 µM | TK-10 > 100 µM | U-251 > 100 µM

O=c1[nH]nc(Cc2ccccc2)n1C1CCCC1
inactive: OVCAR-3 > 100 µM | SW-620 > 100 µM | PC-3 > 100 µM | HCT-116 > 100 µM | MDA-MB-435 > 100 µM | HT-29 > 100 µM | ACHN > 100 µM | SN12C > 100 µM | SNB-19 > 100 µM | UACC-257 > 100 µM | NCI-H522 > 100 µM | IGROV-1 > 100 µM | HL-60 > 100 µM | NCI-H460 > 100 µM | MCF7 > 100 µM | T47D > 100 µM | SK-MEL-28 > 100 µM | A498 > 100 µM | 786-0 > 100 µM | UACC-62 > 100 µM | CAKI-1 > 100 µM | LOX IMVI > 100 µM | COLO 205 > 100 µM | A549 > 100 µM | SF-295 > 100 µM | SNB-75 > 100 µM | OVCAR-5 > 100 µM | NCI/ADR-RES > 100 µM | OVCAR-8 > 100 µM | RPMI-8226 > 100 µM | SK-MEL-5 > 100 µM | MOLT-4 > 100 µM | DU-145 > 100 µM | SF-268 > 100 µM | Hs-578T > 100 µM | OVCAR-4 > 100 µM | CCRF-CEM > 100 µM | UO-31 > 100 µM | MDA-N > 100 µM | Malme-3M > 100 µM | HCC 2998 > 100 µM | SK-OV-3 > 100 µM | NCI-H23 > 100 µM | SR > 100 µM | EKVX > 100 µM | NCI-H226 > 100 µM | SF-539 > 100 µM | M14 > 100 µM | HOP-62 > 100 µM | KM12 > 100 µM | K562 > 100 µM | RXF 393 > 100 µM | MDA-MB-231 > 100 µM | TK-10 > 100 µM | U-251 > 100 µM
> 100 µM: HCT-15
